# Assays:
# [1] = test system: Vero, a non-cancerous cell line; parameters: method as in PMID 25824412, PMID 30687400; conditions: read-out: IC50 in Vero cells; cited from earlier work
# [2] = test system: H9C2 cells; assay: TMRE mitochondrial membrane potential assay in H9C2 cells; format: cell-based, rat; conditions: 24 h; analogues at Vero IC50 concentration
# Protocol: (§1) Mitochondrial membrane potential of the cells after drug treatment was detected using tetramethylrhodamine ethyl ester dye (TMRE; Molecular Probes, CA, USA). The cells were incubated with 0.3 µM TMRE dye and incubated at 37 °C for 30 min in dark. Fluorescence intensity of TMRE was measured at excitation and emission of 549 nm and 574 nm respectively via a multimode plate reader.
# [3] = test system: H9C2 cells; assay: MTT cell viability assay in H9C2 cells; format: cell-based, rat; conditions: 24 h, analogues at Vero IC50 concentration
# Protocol: (§2) Similarly, the toxicity of these compounds in terms of the viability of cells was estimated by using the MTT assay and cell counting kit-8 (CCK-8) assay. For MTT assay, after 24 h of treatments, MTT (5 mg/ml of PBS; HiMedia, India) was added, and cells were incubated for 2 h at 37 °C. The formazan crystals that were formed after the incubation were dissolved using dimethyl sulfoxide (DMSO). For the CCK-8 assay, 10 μL of CCK-8 solution (Boster Biological Technology, Pleasanton, CA, USA) was added to each well and incubated for 2 h at 37 °C. The absorbance for MTT and CCK-8 assay was measured at 570 nm and 450 nm respectively using the EnSight™ Multimode plate reader (Perkin Elmer, MA, USA)[49],[50].
# [4] = test system: WJMSC-derived cardiomyocytes (WJCM); assay: MTT and CCK-8 cell viability assays in WJCM; format: cell-based, human; conditions: 24 h; analogues at Vero IC50 concentration; Dox 1 µM
# Protocol: as §2
# [5] = test system: WJMSC-derived cardiomyocytes (WJCM); assay: LDH release assay in WJCM; format: cell-based, human; conditions: 24 h; analogues at Vero IC50 concentration
# Protocol: (§3) The experiment was performed as per the manufacturer’s protocol. Absorbance was taken at 490 nm and 680 nm (background signal) using multimode plate reader. LDH activity was calculated by subtracting absorbance taken at 680 nm from 490 nm.
# [6] = test system: WJMSC-derived cardiomyocytes (WJCM); assay: Intracellular ROS assay in WJCM; format: cell-based, human; conditions: 24 h; analogues at Vero IC50 concentration
# Protocol: (§4) Generation of ROS was detected using Fluorometric intracellular ROS kit (Sigma Aldrich, MO, USA) as per manufacturer’s protocol. Fluorescence was measured at excitation and emission of 650 nm and 675 nm respectively via multimode plate reader[50],[51].
# [7] = test system: WJMSC-derived cardiomyocytes (WJCM); assay: Fura-2AM intracellular calcium assay in WJCM; format: cell-based, human; conditions: 24 h; analogues at Vero IC50 concentration
# Protocol: (§5) Intracellular calcium flux was measured using the fluorescent radiometric Ca^2+ indicator, Fura-2 acetoxymethyl ester (Fura-2, AM; Invitrogen, Carlsbad, USA). Briefly, after 24 h of treatment, Fura-2AM (1 μmol/L) was added to cells and incubated for 30 min at 37 °C. The intracellular calcium flux was measured at excitation of 340 nm and 380 nm and emission of 510 nm using a multimode plate reader.
# [8] = test system: H9C2 cells; assay: LDH release assay in H9C2 cells; format: cell-based, rat; conditions: 24 h; analogues at Vero IC50 concentration
# Protocol: as §3
# [9] = test system: WJMSC-derived cardiomyocytes (WJCM); assay: TMRE mitochondrial membrane potential assay in WJCM; format: cell-based, human; conditions: 24 h; analogues at Vero IC50 concentration
# Protocol: as §1
# [10] = test system: cardiomyocytes (WJCM and H9C2 cells); assay: Cardiotoxicity across parameters as summarised in the discussion (WJCM and H9C2 cells); format: cell-based, human and rat; conditions: for overall cardiotoxicity across the parameters analyzed: analogues at Vero IC50 concentration, 24 h; for active mitochondria status in treated cardiomyocytes / cytotoxic effect against cardiomyocytes by MTT, CCK-8 and LDH assay / intracellular calcium level in treated cardiomyocytes: discussion summary, cell model not specified
# Text: We investigated the effects of 3-hydroxyflavone (QMJ-2, QMJ-5, and QMJ-6) and cinnamyl sulfonamide-hydroxamate (NMJ-1, NMJ-2, NMJ-3) in WJCM and H9C2 cells using the concentrations reported for non-cancerous Vero cells. The prerequisite for any synthesized drug molecules is that they should be nontoxic to cardiac cells.
# [11] = test system: WJMSC-derived cardiomyocytes (WJCM); assay: Griess assay (NO release) in WJCM; format: cell-based, human; conditions: 24 h
# Protocol: (§6) Nitric oxide (NO) release was estimated using the Griess assay. Briefly, after 24 h of drug treatment, Griess reagent (Sigma Aldrich, MO, USA) was added to cells in equal volume and incubated for 30 min in the dark, and absorbance was taken at 540 nm via multimode plate reader.
# [12] = test system: H9C2 cells; assay: Intracellular ROS assay in H9C2 cells; format: cell-based, rat; conditions: 24 h; analogues at Vero IC50 concentration
# Protocol: as §4
# [13] = test system: H9C2 cells; assay: Fura-2AM intracellular calcium assay in H9C2 cells; format: cell-based, rat; conditions: 24 h; analogues at Vero IC50 concentration
# Protocol: as §5
# [14] = test system: cardiac markers (NKX2.5, GATA4, Troponin I, Troponin T, MHCα) in WJCM; assay: qRT-PCR gene expression of cardiac-specific markers in WJCM; conditions: qRT-PCR; analogues at Vero IC50 concentration
# Protocol: Differentiation of WJMSCs was done using a proprietary combination of DNMT and HDAC inhibitors in KO-DMEM/F-12 containing 10% FBS for 48 h. Induction media was replaced with culture media i.e. KO-DMEM/F-12 with 1X GlutaMAX and, 10% FBS after 48 h for 7 days[23].
# WJMSC-derived cardiomyocytes (WJCM) and H9C2 were treated with NMJ and QMJ analogues for 24 h. […] To illustrate the toxicity specific to cardiac cells and not a general cytotoxicity, WJMSCs were treated with positive cardiotoxic drugs.
# Total ribonucleic acid (RNA) was isolated using RNAiso Plus (TaKaRa, Shiga, Japan) followed by cDNA conversion using PrimeScript™ 1st strand cDNA synthesis kit (TaKaRa, Shiga, Japan). Quantitative reverse transcriptase-polymerase chain reaction (qRT-PCR) was performed by using TB Green™ Premix Ex Taq™ II (Tli RNase H Plus; TaKaRa, Shiga, Japan) for cardiac markers in a QuantStudio™ 5 real-time PCR Systems (Applied Biosystems, USA). All the primers were purchased from Sigma Aldrich, Bangalore, India (Table 1). The relative gene expression was calculated using 2^-∆∆CT and GAPDH, a housekeeping gene was used as endogenous control[52],[53].
# [15] = test system: H9C2 cells; assay: Griess assay (NO release) in H9C2 cells; format: cell-based, rat; conditions: 24 h; analogues at Vero IC50 concentration
# Protocol: as §6
SMILES,IC50 [1] [µM],mitochondrial membrane potential in H9C2 cells (TMRE) [2],"viability of H9C2 cells (MTT), result in words [3]","toxicity / cell viability in WJCM (MTT, CCK-8), result in words [4]",LDH release in WJCM [5],ROS activity in WJCM [6],intracellular Ca2+ accumulation in WJCM (Fura-2AM) [7],LDH release in H9C2 cells [8],mitochondrial membrane potential in WJCM (TMRE) [9],overall cardiotoxicity across the parameters analyzed [10],active mitochondria status in treated cardiomyocytes [10],"cytotoxic effect against cardiomyocytes by MTT, CCK-8 and LDH assay [10]",intracellular calcium level in treated cardiomyocytes [10],ROS activity in H9C2 cells [12],intracellular Ca2+ accumulation in H9C2 cells (Fura-2AM) [13],GATA4 gene expression in WJCM [14],MHCα gene expression in WJCM [14],Troponin I gene expression in WJCM [14],"Troponin T gene expression in WJCM, increase [14]",NO level in H9C2 cells (Griess) [15],further results
O=C(/C=C/c1ccc(S(=O)(=O)NCc2ccco2)cc1)NO [NMJ-3],15.1,increased mitochondrial membrane potential,increase in viability,less toxic,no to little change,lowered ROS activity,decrease in Ca^2+ accumulation,no to little change,increased mitochondrial membrane potential,do not display significant cardiotoxicity,remains unaffected,no cytotoxic effect,remained low,lowered ROS activity,decrease in Ca^2+ accumulation,marked upregulation,marked upregulation,marked upregulation,8–10 fold,,decrease in viability of H9C2 cells (MTT) ([3]; Dox 1 µM): 10–20%; decrease of NO level in WJCM (Griess) ([11]; NMJ-3 at 15.1 µM): 12%
"COc1ccc2c(=O)c(O)c(-c3ccc(C)cc3)oc2c1 [QMJ-6, 3-Hydroxy-7-methoxy-2-(4-methylphenyl)-4H-1-benzopyran-4-one]",153,increased mitochondrial membrane potential,increase in viability,less toxic,no to little change,lowered ROS activity,decrease in Ca^2+ accumulation,no to little change,increased mitochondrial membrane potential,do not display significant cardiotoxicity,remains unaffected,no cytotoxic effect,remained low,lowered ROS activity,decrease in Ca^2+ accumulation,marked upregulation,marked upregulation,marked upregulation,8–10 fold,elevated NO levels,NKX2.5 gene expression in WJCM [14]: significant increase
O=C(/C=C/c1ccc(S(=O)(=O)NCCc2cccs2)cc1)NO [NMJ-2],8.2,increased mitochondrial membrane potential,,less toxic,increase in LDH,lowered ROS activity,decrease in Ca^2+ accumulation,increase in LDH,,do not display significant cardiotoxicity,remains unaffected,no cytotoxic effect,remained low,,decrease in Ca^2+ accumulation,marked upregulation,marked upregulation,marked upregulation,,elevated NO levels,"NO level in WJCM (Griess), result in words ([11]; analogues at Vero IC50 concentration): elevated NO levels; NKX2.5 gene expression in WJCM [14]: significant increase; Troponin T gene expression in WJCM, result in words [14]: milder increase"

# Source: publication PMC9734143, “An efficient human stem cells derived cardiotoxicity testing platform for testing oncotherapeutic analogues of quercetin and cinnamic acid” (Scientific Reports, 2022)
